From patent publication US20230174484A1, “ANTAGONISTS OF GPR39 PROTEIN” (Oregon Health & Science University, priority 2020, published 2023)

Target: T1, human GPR39 receptor (Homo sapiens, UniProt O43194)
T1 construct: PC3 Cells, Expressing the Endogenous Human GPR39 Receptor; endogenous in cells; host or cells: PC3 (human prostate adenocarcinoma) cells
T1 sequence (O43194 1-453): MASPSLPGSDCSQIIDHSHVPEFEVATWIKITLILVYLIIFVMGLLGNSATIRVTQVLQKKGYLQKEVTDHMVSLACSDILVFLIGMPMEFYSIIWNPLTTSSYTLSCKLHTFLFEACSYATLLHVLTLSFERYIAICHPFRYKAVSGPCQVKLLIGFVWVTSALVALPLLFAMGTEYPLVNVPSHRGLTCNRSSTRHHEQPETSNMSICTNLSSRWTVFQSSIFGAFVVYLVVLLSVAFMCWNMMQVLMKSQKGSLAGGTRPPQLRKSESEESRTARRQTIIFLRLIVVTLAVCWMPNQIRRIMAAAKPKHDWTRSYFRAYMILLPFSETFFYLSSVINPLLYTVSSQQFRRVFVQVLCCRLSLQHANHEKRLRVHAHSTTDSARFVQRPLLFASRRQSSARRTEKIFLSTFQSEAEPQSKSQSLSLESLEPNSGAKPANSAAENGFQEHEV
Test: Measurement of intracellular calcium response in PC3 cells (FLIPR), antagonism of the C3 agonist response
Assay type: cell-based
Conditions: functional pKi (modified Cheng-Prusoff), inhibition of the C3 (TC-G 1008) response at EC90, 30 μM ZnCl2, read-out: fpKi activity
Outline: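 PC3 cells with endogenous human GPR39 were loaded with Calcium-6 and read by FLIPR, with compounds tested in buffer with 30 μM final ZnCl2 and 0.32% DMSO. Peak Ca2+ signal was scored as % inhibition of the EC90 C3 response, fitted by four-parameter logistic. Functional pKi was derived via the modified Cheng-Prusoff equation.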

Row | SMILES | Ki [nM]
1 | Cc1nnc(-c2ccc(C(=O)N3CCC(C(F)(F)F)CC3)c(N3CCCC3)c2)[nH]1 [Example 153, [4-(5-methyl-4H-1,2,4-triazol-3-yl)-2-pyrrolidin-1-ylphenyl]-[4-(trifluoromethyl)piperidin-1-yl]methanone] | 63.1 to 251
2 | O=C(c1ccc(-c2nnc(C3CC3)[nH]2)cc1N1CCCC1)N1CCC(C(F)(F)F)CC1 [Example 154] | 63.1 to 251
3 | Cc1ccn(-c2cc(NC(=O)C3CC3)ccc2C(=O)N2CCC(C(F)(F)F)CC2)n1 [Example 156] | 63.1 to 251
4 | CCCN1CCN(C(=O)c2ccc(NC(=O)C3CC3)cc2-n2ccc(C(F)(F)F)n2)CC1 [Example 158, N-[4-(4-propylpiperazine-1-carbonyl)-3-[3-(trifluoromethyl)pyrazol-1-yl]phenyl]cyclopropanecarboxamide] | ≤ 50.1
5 | O=C(Nc1ccc(C(=O)N2CCOC(C(F)(F)F)C2)c(N2CCCC2)c1)C1CC1 (stereo not drawn) [Example 166, N-[3-pyrrolidin-1-yl-4-[2-(trifluoromethyl)morpholine-4-carbonyl]phenyl]cyclopropanecarboxamide] | 1260 to 6310
6 | O=C(Nc1ccc(C(=O)N2CCC(F)CC2)c(N2CCCC2)c1)C1CC1 [Example 168, N-[4-(4-fluoropiperidine-1-carbonyl)-3-pyrrolidin-1-ylphenyl]cyclopropanecarboxamide] | 316 to 1000
7 | Cc1cc(C(F)(F)F)nn1-c1cc(NC(=O)C2CC2)ccc1C(=O)N1CCS(=O)(=O)CC1 [Example 178, N-[4-(1,1-dioxo-1,4-thiazinane-4-carbonyl)-3-[5-methyl-3-(trifluoromethyl)pyrazol-1-yl]phenyl]cyclopropanecarboxamide] | 63.1 to 251
8 | CC(C)c1ccn(-c2cc(NC(=O)C3CC3)ccc2C(=O)N2CCS(=O)(=O)CC2)n1 [Example 179, N-[4-(1,1-dioxo-1,4-thiazinane-4-carbonyl)-3-(3-propan-2-ylpyrazol-1-yl)phenyl]cyclopropanecarboxamide] | ≤ 50.1
9 | O=C(Nc1ccc(C(=O)N2CCS(=O)(=O)CC2)c(-n2ccc(C3CC3)n2)c1)C1CC1 [Example 180, N-[3-(3-cyclopropylpyrazol-1-yl)-4-(1,1-dioxo-1,4-thiazinane-4-carbonyl)phenyl]cyclopropanecarboxamide] | ≤ 50.1
10 | O=C(Nc1ccc(C(=O)N2CCS(=O)(=O)CC2)c(-n2ccc(C(F)(F)F)n2)c1)C1CC1 [Example 181, N-[4-(1,1-dioxo-1,4-thiazinane-4-carbonyl)-3-[3-(trifluoromethyl)pyrazol-1-yl]phenyl]cyclopropanecarboxamide] | ≤ 50.1
11 | O=C(Nc1ccc(C(=O)N2CCS(=O)(=O)CC2)c(-n2cc(C(F)(F)F)cn2)c1)C1CC1 [Example 182, N-[4-(1,1-dioxo-1,4-thiazinane-4-carbonyl)-3-[4-(trifluoromethyl)pyrazolyl]phenyl]cyclopropanecarboxamide] | 316 to 1000
12 | O=C(Nc1ccc(C(=O)N2CCS(=O)(=O)CC2)c(N2CCC(F)(F)C2)c1)C1CC1 [Example 184, N-[3-(3,3-difluoropyrrolidin-1-yl)-4-(1,1-dioxo-1,4-thiazinane-4-carbonyl)phenyl]cyclopropanecarboxamide] | 63.1 to 251
13 | O=C(Nc1ccc(C(=O)N2CCS(=O)(=O)CC2)c(N2CC3CCC2C3)c1)C1CC1 (stereo not drawn) [Example 187, N-[3-(3-azabicyclo[2.2.1]heptan-3-yl)-4-(1,1-dioxo-1,4-thiazinane-4-carbonyl)phenyl]cycloprooanecarboxamide] | 316 to 1000
14 | O=C(Nc1ccc(C(=O)N2CCS(=O)(=O)CC2)c(N2CCCC3(CC3)C2)c1)C1CC1 [Example 189, N-[3-(5-azaspiro[2.5]octan-5-yl)-4-(1,1-dioxo-1,4-thiazinane-4-carbonyl)phenyl]cyclopropanecarboxamide] | 63.1 to 251
15 | O=C(Nc1ccc(C(=O)N2CCS(=O)(=O)CC2)c(N2CCCC(F)(F)C2)c1)C1CC1 [Example 191, N-[3-(3,3-difluoropiperidin-1-yl)-4-(1,1-dioxo-1,4-thiazinane-4-carbonyl)phenyl]cyclopropanecarboxamide] | 1260 to 6310
16 | O=C(Nc1ccc(C(=O)N2CCS(=O)(=O)CC2)c(N2CC3CC(C3)C2)c1)C1CC1 [Example 195, N-[3-(3-azabicyclo[3.1.1]heptan-3-yl)-4-(1,1-dioxo-1,4-thiazinane-4-carbonyl)phenyl]cyclopropanecarboxamide] | 63.1 to 251
17 | O=C(Nc1ccc(C(=O)N2CCS(=O)(=O)CC2)c(N2CCC(F)(F)CC2)c1)C1CC1 [Example 196, N-[3-(4,4-difluoropiperidin-1-yl)-4-(1,1-dioxo-1,4-thiazinane-4-carbonyl)phenyl]cyclopropanecarboxamide] | 1260 to 6310

Row | SMILES | Ki [nM]
18 | CN1CCN(C(=O)c2ccc(NC(=O)C3CC3)cc2N2CCOCC2)C(c2ccccc2)C1 (stereo not drawn) [Example 200, N-[4-(4-methyl-2-phenylpiperazine-1-carbonyl)-3-morpholin-4-ylphenyl]cyclopropanecarboxamide] | 1260 to 6310
19 | CN1CCN(C(=O)c2ccc(NC(=O)C3CC3)cc2N2CCC3(COC3)C2)C(c2ccccc2)C1 (stereo not drawn) [Example 203, N-[4-(4-methyl-2-phenylpiperazine-1-carbonyl)-3-(2-oxa-7-azaspiro[3.4]octan-7-yl)phenyl]cyclopropanecarboxamide] | 316 to 1000
20 | CN1CCN(C(=O)c2ccc(NC(=O)C3CC3)cc2N2CC3(COC3)C2)C(c2ccccc2)C1 (stereo not drawn) [Example 204, N-[4-(4-methyl-2-phenylpiperazine-1-carbonyl)-3-(2-oxa-6-azaspiro[3.3]heptan-6-yl)phenyl]cyclopropanecarboxamide] | 316 to 1000
21 | CN1CCN(C(=O)c2ccc(NC(=O)C3CC3)cc2N2CC3(CCOC3)C2)C(c2ccccc2)C1 (stereo not drawn) [Example 205, N-[4-(4-methyl-2-phenylpiperazine-1-carbonyl)-3-(6-oxa-2-azaspiro[3.4]octan-2-yl)phenyl]cyclopropanecarboxamide] | 63.1 to 251
22 | CN1CCN(C(=O)c2ccc(NC(=O)C3CC3)cc2-n2ccc(C(F)(F)F)n2)C(c2ccccc2)C1 (stereo not drawn) [Example 206, N-[4-(4-methyl-2-phenylpiperazine-1-carbonyl)-3-[3-(trifluoromethyl)pyrazol-1-yl]phenyl]cyclopropanecarboxamide] | 63.1 to 251
23 | CN1CCN(C(=O)c2ccc(NC(=O)C3CC3)cc2-n2cc(C(F)(F)F)cn2)C(c2ccccc2)C1 (stereo not drawn) [Example 207, N-[4-(4-methyl-2-phenylpiperazine-1-carbonyl)-3-[4-(trifluoromethyl)pyrazol-1-yl]phenyl]cyclopropanecarboxamide] | 316 to 1000
24 | Cc1nnc(-c2ccc(C(=O)N3CCC(F)(F)CC3)c(-n3ccc(C(F)(F)F)n3)c2)[nH]1 [Example 208] | ≤ 50.1
25 | Cc1nnc(-c2ccc(C(=O)N3CCC(F)(F)CC3)c(-n3ccc(C4CC4)n3)c2)[nH]1 [Example 209, [2-(3-cyclopropylpyrazol-1-yl)-4-(5-methyl-4H-1,2,4-triazol-3-yl)phenyl]-(4,4-difluoropiperidin-1-yl)methanone] | ≤ 50.1
26 | Cc1nnc(-c2ccc(C(=O)N3CCC(F)(F)CC3)c(-n3ccc(C(C)C)n3)c2)[nH]1 [Example 210, (4,4-difluoropiperidin-1-yl)-[4-(5-methyl-4H-1,2,4-triazol-3-yl)-2-(3-propan-2-ylpyrazol-1-yl)phenyl]methanone] | ≤ 50.1
27 | CN1CCN(C(=O)c2ccc(NC(=O)C3CC3)cc2N2CCC3(COC3)C2)C(c2cccc(Cl)c2)C1 (stereo not drawn) [Example 212, N-[4-[2-(3-chlorophenyl)-4-methylpiperazine-1-carbonyl]-3-(2-oxa-7-azaspiro[3.4]octan-7-yl)phenyl]cyclopropanecarboxamide] | 63.1 to 251
28 | Cc1nnc(-c2ccc(C(=O)N3CCC4(CC3)CC4)c(-n3ccc(C(F)(F)F)n3)c2)[nH]1 [Example 214, 6-azaspiro[2.5]octan-6-yl-[4-(5-methyl-4H-1,2,4-triazol-3-yl)-2-[3-(trifluoromethyl)pyrazol-1-yl]phenyl]methanone] | ≤ 50.1
29 | CS(=O)(=O)N1CCN(C(=O)c2ccc(NC(=O)C3CC3)cc2N2CCCC2)C(c2ccccc2)C1 (stereo not drawn) [Example 215, N-[4-(4-methylsulfonyl-2-phenylpiperazine-1-carbonyl)-3-pyrrolidin-1-ylphenyl]cyclopropanecarboxamide] | 63.1 to 251
30 | CN(C)C(=O)N1CCN(C(=O)c2ccc(NC(=O)C3CC3)cc2N2CCCC2)C(c2ccccc2)C1 (stereo not drawn) [Example 216, 4-[4-(cyclopropanecarbonylamino)-2-pyrrolidin-1-ylbenzoyl]-N,N-dimethyl-3-phenylpiperazine-1-carboxamide] | 63.1 to 251
31 | CNC(=O)N1CCN(C(=O)c2ccc(NC(=O)C3CC3)cc2N2CCCC2)C(c2ccccc2)C1 (stereo not drawn) [Example 217, 4-[4-(cyclopropanecarbonylamino)-2-pyrrolidin-1-ylbenzoyl]-N-methyl-3-phenylpiperazine-1-carboxamide] | 316 to 1000
32 | CS(=O)(=O)C1CCN(C(=O)c2ccc(NC(=O)C3CC3)cc2N2CCCC2)CC1 [Example 218, N-[4-(4-methylsulfonylpiperidine-1-carbonyl)-3-pyrrolidin-1-ylphenyl]cyclopropanecarboxamide] | 1260 to 6310
33 | O=C(Nc1ccc(C(=O)N2CCC3(CC2)COC3)c(N2CCCC2)c1)C1CC1 [Example 219, N-[4-(2-oxa-7-azaspiro[3.5]nonane-7-carbonyl)-3-pyrrolidin-1-ylphenyl]cyclopropanecarboxamide] | 63.1 to 251
